Assay results taken from the supplement of paper PMC10331698.
± gives the standard deviation of the averaged measurements.

Assays:
Assay in all cases: level (log10 ratio to DMSO vehicle control); higher = higher biomarker level / cell amount than vehicle control
[1] = compound: OCCC(F)(F)C(F)(F)C(F)(F)C(F)(F)F [4:2 Fluorotelomer alcohol] (in DMSO)
Procedure: (§1)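 BioMAP Diversity Plus panel of 12 human primary cell co-culture systems (3C, 4H, LPS, SAg, BT, BF4T, BE3C, CASM3C, HDF3CGF, KF3CT, MyoF, Mphg). Compounds were added 1 h before stimulation and left for 24 h (MyoF 48 h; BT 72 h for soluble read-outs or 6 d for IgG). Biomarkers were read by ELISA, cytotoxicity by SRB, PBMC viability and proliferation by Alamar Blue. Each well value was divided by the mean of 8 DMSO control wells on the same plate and log10 transformed; duplicate blinded samples were tested at 4 concentrations.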

[2] = compound: O=C(O)C(F)(OC(F)(F)C(F)(F)C(F)(F)F)C(F)(F)F [Ammonium perfluoro-2-methyl-3-oxahexanoate] (in Water)
Procedure: as §1

[3] = compound: OCC(F)(F)C(F)(F)C(F)(F)C(F)(F)C(F)(F)C(F)(F)CO [1H,1H,8H,8H-Perfluorooctane-1,8-diol] (in DMSO)
Procedure: as §1

[4] = compound: O=C(O)C(F)(F)OC(F)(F)C(F)(F)OC(F)(F)C(F)(F)OC(F)(F)C(F)(F)C(F)(F)C(F)(F)F [Perfluoro-3,6,9-trioxatridecanoic acid] (in DMSO); conditions: 6700 nM
Procedure: as §1

[5] = compound: O=C(O)C(F)(OC(F)(F)C(F)(OC(F)(F)C(F)(OC(F)(F)C(F)(F)C(F)(F)F)C(F)(F)F)C(F)(F)F)C(F)(F)F [Perfluoro-(2,5,8-trimethyl-3,6,9-trioxadodecanoic)acid] (in DMSO)
Procedure: as §1

Perfluoroundecanoic acid = compound: O=C(O)C(F)(F)C(F)(F)C(F)(F)C(F)(F)C(F)(F)C(F)(F)C(F)(F)C(F)(F)C(F)(F)C(F)(F)F [Perfluoroundecanoic acid] (in DMSO); conditions: 6700 nM
Procedure: as §1

Perfluorononanoic acid = compound: O=C(O)C(F)(F)C(F)(F)C(F)(F)C(F)(F)C(F)(F)C(F)(F)C(F)(F)C(F)(F)F [Perfluorononanoic acid] (in DMSO)
Procedure: as §1

[6] = compound: C[C@@H]1C[C@H]2[C@@H]3CCC4=CC(=O)C=C[C@]4(C)[C@@]3(F)[C@@H](O)C[C@]2(C)[C@@]1(O)C(=O)COP(=O)(O)O [Dexamethasone sodium phosphate] (in DMSO)
Procedure: as §1

Test System | level (log10) ([1]; 6700 nM) | level (log10) ([1]; 20000 nM) | level (log10) ([1]; 60000 nM) | level (log10) ([2]; 6700 nM) | level (log10) ([2]; 20000 nM) | level (log10) ([2]; 60000 nM) | level (log10) ([3]; 6700 nM) | level (log10) ([3]; 20000 nM) | level (log10) ([3]; 60000 nM) | level (log10) [4] | level (log10) ([5]; 1100 nM) | level (log10) ([5]; 3300 nM) | level (log10) ([5]; 10000 nM) | level (log10) (Perfluoroundecanoic acid) | level (log10) (Perfluorononanoic acid; 6700 nM) | level (log10) (Perfluorononanoic acid; 20000 nM) | level (log10) ([6]; 1500 nM) | level (log10) ([6]; 4400 nM) | level (log10) ([6]; 13000 nM) | level (log10) ([6]; 40000 nM)
3C:CD87/uPAR | -0.015 ± 0.014 | -0.0215 ± 0.028 | 0.005 ± 0.0071 | -0.016 ± 0.054 | -0.0085 ± 0.028 | -0.042 ± 0.021 | -0.0245 ± 0.026 | -0.0125 ± 0.0092 | -0.019 ± 0.0028 | 0.0095 ± 0.028 | -0.0075 ± 0.016 | -0.0005 ± 0.011 | -0.0105 ± 0.019 | -0.0125 ± 0.005 | 0.002 ± 0.011 | -0.018 ± 0.016 | 0.0545 ± 0.013 | 0.048 ± 0.02 | 0.0455 ± 0.00071 | 0.016 ± 0.016
3C:CXCL8/IL-8 | -0.002 | 0.017 ± 0.031 | 0.044 ± 0.059 | 0.038 ± 0.037 | 0.0745 ± 0.029 | 0.131 ± 0.014 | -0.0045 ± 0.0021 | -0.0055 ± 0.0064 | 0.0245 ± 0.023 | -0.003 ± 0.027 | -0.004 ± 0.021 | -0.015 ± 0.011 | 0.005 ± 0.024 | -0.022 ± 0.02 | 0.0175 ± 0.0021 | 0.0475 ± 0.013 | 0.014 ± 0.027 | -0.0015 ± 0.0035 | -0.0035 ± 0.032 | -0.007 ± 0.062
3C:CXCL9/MIG | -0.01 ± 0.0057 | -0.0025 ± 0.0078 | 0 ± 0.0042 | -0.0085 ± 0.011 | -0.003 ± 0.0099 | -0.004 | 0.0015 ± 0.0035 | -0.0025 ± 0.005 | 0.0105 ± 0.013 | 0.0115 ± 0.00071 | 0.0125 ± 0.0078 | -0.0035 ± 0.021 | 0.007 ± 0.0071 | 0.0025 ± 0.005 | -0.0085 ± 0.0064 | 0.0045 ± 0.0064 | 0.0025 ± 0.0021 | 0.001 ± 0.0085 | -0.004 ± 0.0071 | 0.003 ± 0.0085
3C:HLA-DR | -0.019 | -0.0145 ± 0.0092 | 0 ± 0.011 | 0.0075 ± 0.011 | 0.0175 ± 0.028 | 0.016 ± 0.0014 | -0.0115 ± 0.015 | -0.007 ± 0.0085 | -0.0175 ± 0.026 | -0.018 ± 0.04 | -0.0045 ± 0.0078 | -0.002 ± 0.0057 | 0.0115 ± 0.013 | -0.023 ± 0.0014 | -0.024 ± 0.033 | 0.017 ± 0.021 | -0.0025 ± 0.012 | -0.0065 ± 0.022 | 0.0035 ± 0.0035 | 0.0135 ± 0.0035
3C:Proliferation | -0.011 ± 0.014 | -0.0175 ± 0.032 | 0.013 ± 0.024 | -0.0765 ± 0.015 | -0.136 ± 0.031 | -0.149 ± 0.023 | -0.059 ± 0.024 | -0.0565 ± 0.013 | -0.106 ± 0.042 | 0.0425 ± 0.016 | 0.007 ± 0.02 | 0.013 ± 0.0085 | -0.011 ± 0.013 | 0.027 ± 0.013 | 0.0095 ± 0.073 | 0.0795 ± 0.03 | -0.0115 ± 0.005 | 0.011 ± 0.092 | -0.0045 ± 0.052 | 0.015 ± 0.02
3C:SRB | -0.006 ± 0.0085 | -0.0065 ± 0.011 | -0.0045 ± 0.0092 | -0.019 ± 0.011 | -0.021 ± 0.0042 | -0.045 | 0.012 ± 0.017 | 0.0035 ± 0.025 | -0.0045 ± 0.04 | -0.002 ± 0.014 | -0.0025 ± 0.005 | -0.0065 ± 0.0035 | 0.003 ± 0.0071 | 0.0095 ± 0.015 | -0.002 ± 0.0042 | -0.003 | -0.0005 ± 0.00071 | -0.005 ± 0.0085 | -0.0025 ± 0.025 | 0.0035 ± 0.025
